# Results: patent US20170190671A1, “BIS(ARYL)CATECHOL DERIVATIVES AS HERBICIDES” (E I DU PONT DE NEMOURS AND COMPANY, priority 2014, published 2017)
# How the values were obtained:
# Assay in all cases: Test E postemergence
# Format in all cases: in vivo
# Settings in all cases: scale 0 to 100
# [1] = tested on: Brazilian crabgrass (Digitaria horizontalis)
# Excerpt: (§1) Seeds of plant species selected from corn (Zea mays), soybean (Glycine max), velvetleaf (Abutilon theophrasti), cocklebur (common cocklebur, Xanthium strumarium), lambsquarters (Chenopodium album), wild poinsettia (Euphorbia heterophylla), palmer pigweed (Amaranthus palmeri), waterhemp (common waterhemp, Amaranthus rudis), surinam grass (Brachiaria decumbens), large (Lg) crabgrass (Digitaria sanguinalis), Brazilian crabgrass (Digitaria horizontalis), fall panicum (Panicum dichotomiflorum), giant foxtail (Setaria faberii), green foxtail (Setaria viridis), goosegrass (Eleusine indica), johnsongrass (Sorghum halepense), ragweed (common ragweed, Ambrosia elatior), barnyardgrass (Echinochloa crus-galli), sandbur (southern sandbur, Cenchrus echinatus), arrowleaf sida (Sida rhombifolia), Italian ryegrass (Lolium multiflorum), dayflower (Virginia (VA) dayflower, Commelina virginica), field bindweed (Convolvulus arvensis), morningglory (Ipomoea coccinea), nightshade (eastern black nightshade, Solanum ptycanthum), kochia (Kochia scoparia), yellow nutsedge (Cyperus esculentus), horseweed (Conyza canadensis), and hairy beggarticks (Bidens pilosa), were planted into a silt loam soil and treated preemergence with test chemicals formulated in a non-phytotoxic solvent mixture which included a surfactant.
# (§2) At the same time, plants from these crop and weed species and also waterhemp_RES1, (ALS & Triazine resistant common waterhemp, Amaranthus rudis), and waterhemp_RES2, (ALS & HPPD resistant common waterhemp, Amaranthus rudis) were planted in pots containing Redi-Earth® planting medium (Scotts Company, 14111 Scottslawn Road, Marysville, Ohio 43041) comprising spaghnum peat moss, vermiculite, wetting agent and starter nutrients were treated with postemergence applications of test chemicals formulated in the same manner. Plants ranged in height from 2 to 18 cm for postemergence treatments (1- to 4-leaf stage). Treated plants and controls were maintained in a greenhouse for 14 to 21 days, after which time all species were compared to controls and visually evaluated. Plant response ratings, summarized in Table E, are based on a scale of 0 to 100 where 0 is no effect and 100 is complete control. A dash (-) response means no test result.
# [2] = tested on: Italian ryegrass (Lolium multiflorum)
# Excerpt: as §1, §2
# [3] = tested on: arrowleaf sida (Sida rhombifolia)
# Excerpt: as §1, §2
# [4] = tested on: barnyardgrass (Echinochloa crus-galli)
# Excerpt: as §1, §2
# [5] = tested on: corn (Zea mays)
# Excerpt: as §1, §2
# [6] = tested on: dayflower (Virginia (VA) dayflower, Commelina virginica)
# Excerpt: as §1, §2
# [7] = tested on: fall panicum (Panicum dichotomiflorum)
# Excerpt: as §1, §2
# [8] = tested on: field bindweed (Convolvulus arvensis)
# Excerpt: as §1, §2
# [9] = tested on: hairy beggarticks (Bidens pilosa)
# Excerpt: as §1, §2
# [10] = tested on: horseweed (Conyza canadensis)
# Excerpt: as §1, §2
# [11] = tested on: kochia (Kochia scoparia)
# Excerpt: as §1, §2
# [12] = tested on: palmer pigweed (Amaranthus palmeri)
# Excerpt: as §1, §2
# [13] = tested on: ragweed (common ragweed, Ambrosia elatior)
# Excerpt: as §1, §2
# [14] = tested on: sandbur (southern sandbur, Cenchrus echinatus)
# Excerpt: as §1, §2
# [15] = tested on: soybean (Glycine max)
# Excerpt: as §1, §2
# [16] = tested on: waterhemp (common waterhemp, Amaranthus rudis)
# Excerpt: as §1, §2
# [17] = tested on: waterhemp_RES1 (ALS & Triazine resistant common waterhemp, Amaranthus rudis)
# Excerpt: as §1, §2
# [18] = tested on: waterhemp_RES2 (ALS & HPPD resistant common waterhemp, Amaranthus rudis)
# Excerpt: as §1, §2
structure (smiles),measurement,setting,value
"N#Cc1cccc(Oc2ncc(Cl)cn2)c1Oc1ncc(C(F)(F)F)cn1 [Compound 38, 3-[(5-chloro-2-pyrimidinyl)oxy]-2-[[5-(trifluoromethyl)-2-pyrimidinyl]oxy]-benzonitrile]","Plant response rating, Crabgrass, Brazil",[1]; 16 g ai/ha,10
same,"Plant response rating, Crabgrass, Brazil",[1]; 31 g ai/ha,15
same,"Plant response rating, Crabgrass, Brazil",[1]; 62 g ai/ha,20
same,"Plant response rating, Crabgrass, Brazil",[1]; 125 g ai/ha,20
same,"Plant response rating, Ryegrass, Italian",[2]; 16 g ai/ha,0
same,"Plant response rating, Ryegrass, Italian",[2]; 31 g ai/ha,5
same,"Plant response rating, Ryegrass, Italian",[2]; 62 g ai/ha,10
same,"Plant response rating, Ryegrass, Italian",[2]; 125 g ai/ha,15
same,"Plant response rating, Arrowleaf Sida",[3]; 16 g ai/ha,60
same,"Plant response rating, Arrowleaf Sida",[3]; 31 g ai/ha,80
same,"Plant response rating, Arrowleaf Sida",[3]; 62 g ai/ha,90
same,"Plant response rating, Arrowleaf Sida",[3]; 125 g ai/ha,90
same,"Plant response rating, Barnyardgrass",[4]; 16 g ai/ha,0
same,"Plant response rating, Barnyardgrass",[4]; 31 g ai/ha,10
same,"Plant response rating, Barnyardgrass",[4]; 62 g ai/ha,10
same,"Plant response rating, Barnyardgrass",[4]; 125 g ai/ha,20
same,"Plant response rating, Corn",[5]; 16 g ai/ha,0
same,"Plant response rating, Corn",[5]; 31 g ai/ha,0
same,"Plant response rating, Corn",[5]; 62 g ai/ha,15
same,"Plant response rating, Corn",[5]; 125 g ai/ha,20
same,"Plant response rating, Dayflower, VA",[6]; 16 g ai/ha,40
same,"Plant response rating, Dayflower, VA",[6]; 31 g ai/ha,50
same,"Plant response rating, Dayflower, VA",[6]; 62 g ai/ha,60
same,"Plant response rating, Dayflower, VA",[6]; 125 g ai/ha,60
same,"Plant response rating, Panicum, Fall",[7]; 16 g ai/ha,10
same,"Plant response rating, Panicum, Fall",[7]; 31 g ai/ha,10
same,"Plant response rating, Panicum, Fall",[7]; 62 g ai/ha,10
same,"Plant response rating, Field Bindweed",[8]; 16 g ai/ha,60
same,"Plant response rating, Field Bindweed",[8]; 31 g ai/ha,65
same,"Plant response rating, Field Bindweed",[8]; 62 g ai/ha,80
same,"Plant response rating, Field Bindweed",[8]; 125 g ai/ha,85
same,"Plant response rating, Beggarticks",[9]; 16 g ai/ha,35
same,"Plant response rating, Beggarticks",[9]; 31 g ai/ha,40
same,"Plant response rating, Beggarticks",[9]; 62 g ai/ha,40
same,"Plant response rating, Beggarticks",[9]; 125 g ai/ha,50
same,"Plant response rating, Horseweed",[10]; 16 g ai/ha,5
same,"Plant response rating, Horseweed",[10]; 31 g ai/ha,10
same,"Plant response rating, Horseweed",[10]; 62 g ai/ha,20
same,"Plant response rating, Horseweed",[10]; 125 g ai/ha,40
same,"Plant response rating, Kochia",[11]; 16 g ai/ha,80
same,"Plant response rating, Kochia",[11]; 31 g ai/ha,80
same,"Plant response rating, Kochia",[11]; 62 g ai/ha,100
same,"Plant response rating, Kochia",[11]; 125 g ai/ha,98
same,"Plant response rating, Pigweed, Palmer",[12]; 16 g ai/ha,60
same,"Plant response rating, Pigweed, Palmer",[12]; 31 g ai/ha,75
same,"Plant response rating, Pigweed, Palmer",[12]; 62 g ai/ha,60
same,"Plant response rating, Pigweed, Palmer",[12]; 125 g ai/ha,90
same,"Plant response rating, Ragweed",[13]; 16 g ai/ha,20
same,"Plant response rating, Ragweed",[13]; 31 g ai/ha,20
same,"Plant response rating, Ragweed",[13]; 62 g ai/ha,40
same,"Plant response rating, Ragweed",[13]; 125 g ai/ha,50
same,"Plant response rating, Sandbur",[14]; 16 g ai/ha,0
same,"Plant response rating, Sandbur",[14]; 31 g ai/ha,0
same,"Plant response rating, Sandbur",[14]; 62 g ai/ha,10
same,"Plant response rating, Sandbur",[14]; 125 g ai/ha,20
same,"Plant response rating, Soybean",[15]; 16 g ai/ha,70
same,"Plant response rating, Soybean",[15]; 31 g ai/ha,80
same,"Plant response rating, Soybean",[15]; 62 g ai/ha,95
same,"Plant response rating, Soybean",[15]; 125 g ai/ha,98
same,"Plant response rating, Waterhemp",[16]; 16 g ai/ha,85
same,"Plant response rating, Waterhemp",[16]; 31 g ai/ha,90
same,"Plant response rating, Waterhemp",[16]; 62 g ai/ha,95
same,"Plant response rating, Waterhemp",[16]; 125 g ai/ha,95
same,"Plant response rating, Waterhemp_RES1",[17]; 16 g ai/ha,80
same,"Plant response rating, Waterhemp_RES1",[17]; 31 g ai/ha,90
same,"Plant response rating, Waterhemp_RES1",[17]; 62 g ai/ha,90
same,"Plant response rating, Waterhemp_RES1",[17]; 125 g ai/ha,95
same,"Plant response rating, Waterhemp_RES2",[18]; 16 g ai/ha,75
same,"Plant response rating, Waterhemp_RES2",[18]; 31 g ai/ha,85
same,"Plant response rating, Waterhemp_RES2",[18]; 62 g ai/ha,90
same,"Plant response rating, Waterhemp_RES2",[18]; 125 g ai/ha,95
